# Data as given in PubChem BioAssay (NCI).
#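 Here, GI50 denotes the concentration required for 50% inhibition of growth. At the TGI there is no net growth.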
# What was measured:
# Assay in all cases: growth of human tumour cells (NCI), 384-well format
# [1] = test system: TK-10 renal
# [2] = test system: ACHN renal
# [3] = test system: T-47D breast
# [4] = test system: CAKI-1 renal
# [5] = test system: CCRF-CEM leukemia
# [6] = test system: SF-295 CNS
# [7] = test system: SR leukemia
# [8] = test system: SK-MEL-5 melanoma
# [9] = test system: OVCAR-5 ovarian
# [10] = test system: SF-539 CNS
# [11] = test system: U251 glioblastoma
# [12] = test system: SK-OV-3 ovarian
# [13] = test system: RXF 393 renal
# [14] = test system: NCI-H522 lung
# [15] = test system: UACC-62 melanoma
# [16] = test system: NCI/ADR-RES ovarian
# [17] = test system: OVCAR-8 ovarian
# [18] = test system: NCI-H460 NSCLC
# [19] = test system: SK-MEL-2 melanoma
# [20] = test system: SF-268 CNS
# [21] = test system: LOX IMVI melanoma
# [22] = test system: UACC-257 melanoma
# [23] = test system: MDA-MB-231 breast
# [24] = test system: MOLT-4 leukemia
# [25] = test system: COLO 205 colon
# [26] = test system: HL-60(TB) leukemia
# [27] = test system: MCF7 breast
# [28] = test system: HCT-15 colon
# [29] = test system: HCT-116 colon
# [30] = test system: HCC-2998 colon
# [31] = test system: DU-145 prostate
# [32] = test system: MDA-MB-468 breast
# [33] = test system: A498 renal
# [34] = test system: SN12C renal
# [35] = test system: MDA-MB-435 melanoma
# [36] = test system: BT-549 breast
# [37] = test system: SW-620 colon
# [38] = test system: A549 NSCLC
# [39] = test system: SK-MEL-28 melanoma
# [40] = test system: 786-0 renal
# [41] = test system: HT29 colon
# [42] = test system: NCI-H23 lung
# [43] = test system: K-562 leukemia
# [44] = test system: UO-31 renal
# [45] = test system: PC-3 prostate
# [46] = test system: OVCAR-4 ovarian
# [47] = test system: NCI-H226 lung
# [48] = test system: KM12 colon
# [49] = test system: HOP-92 NSCLC
# [50] = test system: M14 melanoma
# [51] = test system: OVCAR-3 ovarian
# [52] = test system: MALME-3M melanoma
# [53] = test system: HOP-62 NSCLC
# [54] = test system: NCI-H322M lung
# [55] = test system: IGROV1 ovarian
# [56] = test system: SNB-19 CNS
smiles,measurement,setting,value
N[C@@H](CSSC[C@H](N)C(=O)N1CCn2cc(-c3ccccc3)nc2[C@@H]1CC1CCCCC1)C(=O)N1CCn2cc(-c3ccccc3)nc2[C@@H]1CC1CCCCC1,GI50,[1],1750 nM
same,TGI,[1],3150 nM
same,GI50,[2],1950 nM
same,TGI,[2],3390 nM
same,GI50,[3],155 nM
same,TGI,[3],550 nM
same,GI50,[4],1930 nM
same,TGI,[4],3560 nM
same,GI50,[5],294 nM
same,TGI,[5],1270 nM
same,GI50,[6],1940 nM
same,TGI,[6],3360 nM
same,GI50,[7],220 nM
same,TGI,[7],627 nM
same,GI50,[8],194 nM
same,TGI,[8],1300 nM
same,GI50,[9],1710 nM
same,TGI,[9],3150 nM
same,GI50,[10],1720 nM
same,TGI,[10],3100 nM
same,GI50,[11],571 nM
same,TGI,[11],1890 nM
same,GI50,[12],242 nM
same,TGI,[12],1800 nM
same,TGI,[13],1090 nM
same,GI50,[14],1610 nM
same,TGI,[14],2970 nM
same,GI50,[15],176 nM
same,TGI,[15],349 nM
same,GI50,[16],2350 nM
same,TGI,[16],5410 nM
same,GI50,[17],1620 nM
same,TGI,[17],2980 nM
same,GI50,[18],288 nM
same,TGI,[18],1590 nM
same,GI50,[19],184 nM
same,TGI,[19],524 nM
same,GI50,[20],283 nM
same,TGI,[20],1160 nM
same,GI50,[21],1330 nM
same,TGI,[21],2620 nM
same,GI50,[22],257 nM
same,TGI,[22],702 nM
same,GI50,[23],1630 nM
same,TGI,[23],2990 nM
same,GI50,[24],140 nM
same,TGI,[24],271 nM
same,GI50,[25],1390 nM
same,TGI,[25],2700 nM
same,GI50,[26],796 nM
same,TGI,[26],1990 nM
same,GI50,[27],1460 nM
same,TGI,[27],2790 nM
same,GI50,[28],1580 nM
same,TGI,[28],2930 nM
same,GI50,[29],215 nM
same,TGI,[29],490 nM
same,GI50,[30],1700 nM
same,TGI,[30],3080 nM
same,GI50,[31],1850 nM
same,TGI,[31],6340 nM
same,GI50,[32],1080 nM
same,TGI,[32],2280 nM
same,GI50,[33],1630 nM
same,TGI,[33],3000 nM
same,GI50,[34],1560 nM
same,TGI,[34],2910 nM
same,GI50,[35],677 nM
same,TGI,[35],1930 nM
same,GI50,[36],1840 nM
same,TGI,[36],3250 nM
same,GI50,[37],1020 nM
same,TGI,[37],2200 nM
same,GI50,[38],1260 nM
same,TGI,[38],2530 nM
same,GI50,[39],146 nM
same,TGI,[39],1030 nM
same,GI50,[40],1510 nM
same,TGI,[40],2930 nM
same,GI50,[41],1470 nM
same,TGI,[41],2840 nM
same,GI50,[42],2120 nM
same,TGI,[42],4210 nM
same,GI50,[43],551 nM
same,TGI,[43],1740 nM
same,GI50,[44],2070 nM
same,TGI,[44],3960 nM
same,GI50,[45],1830 nM
same,TGI,[45],3260 nM
same,GI50,[46],1940 nM
same,TGI,[46],3380 nM
same,GI50,[47],1820 nM
same,TGI,[47],3260 nM
same,GI50,[48],312 nM
same,TGI,[48],1550 nM
same,GI50,[49],1980 nM
same,TGI,[49],3440 nM
same,GI50,[50],146 nM
same,TGI,[50],355 nM
same,GI50,[51],1100 nM
same,TGI,[51],2310 nM
same,GI50,[52],1140 nM
same,TGI,[52],2360 nM
same,GI50,[53],1250 nM
same,TGI,[53],2530 nM
same,GI50,[54],2470 nM
same,TGI,[54],5640 nM
same,GI50,[55],1600 nM
same,TGI,[55],3310 nM
same,GI50,[56],586 nM
same,TGI,[56],1870 nM
